For one test, the target named is T1, PARP domain of TNKS2 (Homo sapiens, UniProt Q9H2K2).
T1 construct: His6; made in house; host or cells: Escherichia coli BL-21(DE3) RIPL
Description: In vitro PARP assay, IC50 on TNKS2 (this study). Format: biochemical. Particulars: values from this study. On the procedure: Purified PARP domain of TNKS2 and either BSA or recombinant full-length 3BP2 protein were incubated in PARP reaction buffer (50 mM Tris pH 8.0, 4 mM MgCl2, 0.2 mM dithiothreitol) containing 0.5 mM NAD^+ as an exogenous source of ADP-ribose for 30 min at 25°C with or without PARP inhibitors. Reactions were stopped by adding sample buffer to the tubes. Samples were boiled and separated on a 4–20% SDS–PAGE gel. The gel was stained with Coomassie Blue, dried on a gel dryer and used for autoradiography analysis (Fig. 2 ▶).

A further test concerns PARP1. Details: method as in not given. The note with it: cited from earlier work.
The subject of the next test is PARP2. Also on record: method as in not given. The note with it: IC50 values available from the literature; ref not given; cited from earlier work.
Another test relates to TNKS1. Details: method as in not given. The note with it: IC50 values available from the literature; ref not given; cited from earlier work.
The subject of the next test is TNKS2. Details: method as in not given. Particulars: IC50 values available from the literature; ref not given; cited from earlier work.
[1] abbreviates: IC50 values available from the literature, ref not given.

Molecules are shown by their SMILES. Read-outs that look alike come from different tables or passages of the source.

T1 sequence (Q9H2K2 959-1164): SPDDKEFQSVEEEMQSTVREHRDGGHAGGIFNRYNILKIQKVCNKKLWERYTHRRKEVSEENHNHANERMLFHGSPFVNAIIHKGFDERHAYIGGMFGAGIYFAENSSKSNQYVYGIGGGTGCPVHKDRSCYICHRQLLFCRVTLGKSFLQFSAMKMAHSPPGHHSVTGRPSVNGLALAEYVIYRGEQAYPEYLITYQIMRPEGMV

In general, IC50 refers to the point on the concentration scale where inhibition reaches its midpoint. With `Nc1cccc2c(=O)[nH]ccc12` [5-AIQ, 5-Aminoisoquinolinone], the IC50 on PARP domain of TNKS2 is 10000 nM; in the test with PARP1 it was 250 nM.
Turning to `Cc1nc2c(c(=O)[nH]1)CSCC2` [DR-2313, 2-Methyl-3,5,7,8-tetrahydro-4H-thiopyrano[4,3-d]pyrimidin-4-one], the results for the IC50 on PARP domain of TNKS2 and in the test with PARP2 were 3000 nM and 240 nM, respectively.
In turn, `Oc1cccc2c(O)nccc12` [1,5-IQD, 1,5-Isoquinolinediol] registered an IC50 against PARP domain of TNKS2 of 1500 nM.
For `Nc1ccc2oc(=O)ccc2c1I` [INH2BP, 5-Iodo-6-amino-1,2-benzopyrone], the IC50 in the test on PARP2 is 4750 nM; in the test with PARP1 (setting [1]), 5070 nM.
In turn, `NC(=O)c1ccc(I)c([N+](=O)[O-])c1` [BSI-201, 4-Iodo-3-nitrobenzamide] displayed an IC50 at PARP domain of TNKS2 of 416 nM.
With `O=C1NCCc2c(OCCCCN3CCCCC3)cccc21` [DPQ], the results for the IC50 on PARP domain of TNKS2, with PARP1 and in the test with TNKS1 were 2800 nM, 23 nM and 33 nM, respectively.
In the case of `NC(=O)c1cccc(N)c1` [3-AB, 3-Amino-benzamide], the figures for the IC50 at PARP domain of TNKS2 and in the test on PARP1 (setting [1]) were above 30000 nM and 33000 nM, respectively.
As to `Cc1nc2c(O)cccc2c(=O)[nH]1` [NU-1025, 8-Hydroxy-2-methyl-3-hydro-quinazolin-4-one], the IC50 in the test with PARP1 (setting [1]) is 400 nM.
Consider `NC(=O)c1cccc2ncc(-c3ccc(Cl)cc3)nc12` [3,4-CPQ-5C, 3-(4-Chlorophenyl)-quinoxaline-5-carboxamide], for which, on PARP domain of TNKS2, the IC50 was 3600 nM.
As to `C[C@]1(c2nc3c(C(N)=O)cccc3[nH]2)CCCN1` [ABT-888, 2-[(R)-2-Methylpyrolidin-2-yl]-1H-benzimidazole-4-carboxamide], the IC50 was […] in the test on PARP2, […] with PARP1, […] in the test with TNKS1 and […] with TNKS2.
